Assay results from PMC9387325, “New quinoline and isatin derivatives as apoptotic VEGFR-2 inhibitors: design, synthesis, anti-proliferative activity, docking, ADMET, toxicity, and MD simulation studies” (Journal of Enzyme Inhibition and Medicinal Chemistry, 2022).

Legend:
Caco-2 = experiment: In vitro anti-proliferative activity (MTT assay); assay type: cell-based, human; conditions: for IC50: Homo sapiens, Caco-2, mean of three replicates
Procedure: (§1) To assess the antiproliferative effects of the targeted candidates, an MTT assay[29–31] was performed against four cancer cell lines: lung carcinoma epithelial (A549), colon cancer (Caco-2), hepatocellular cancer (HepG2), and breast cancer (MDA-MB-231).
(§2) Anti-proliferative activities were assessed using the MTT assay[31]^,[46] and were explained intensely in Supplementary data. […]
(§3) a- Mammalian cell lines culture
(§4) Lung carcinoma epithelial (A549), colon cancer (Caco-2)cell lines were cultured on DMEM media, meanwhile hepatocellular cancer (HepG2), and breast cancer (MDA-MB-231) cell lines were cultured on RBMI media. The cultured media were supplement ed with 200 mM L-glutamine, 10.0% fetal bovine serum (Lonza), and 1.0% penicillin/streptomycin. Cells were seeded into 25.0 cm tissue culture flasks and incubated at 37 ◦C in a 5.0% CO2 incubator for 24 h or till confluency.
(§5) The safety profiles of the tested compounds were checked on one non-cancerous cell line (Vero) to […]
(§6) of 100.0 µl of 6×10^4 cell/ml cells was seeded in to each well of a 96-well plate and then the plates were incubated at 37 °C in a humidified 5.0% CO2 incubator for 24 h. At the end of incubation period, the exhausted medium was replaced with 100.0 µl of different concentrations of the designated treatment (prepared in RPMI medium starting from 1.0 mM). The inoculated plates were incubated at the same growth conditions for another 24 h. At the end of incubation, cellular viability was assessed using MTS assay kit (Promega) according to the manual instruction. c- In-vitro anticancer activity
(§7) Anticancer activities of the tested compounds against lung carcinoma epithelial (A549), colon cancer (Caco-2), hepatocellular cancer (HepG2), and breast cancer (MDA-MB-231) cell lines were quantified using MTS assay kit (Promega) as described by the Manufacturer. d- Selectivity index (SI)
(§8) The selectivity index values of the tested compounds on cancer cells were calculated as described by Koch et al., with slight modifications; SI=IC50nc/IC50cc, where IC50nc: the IC50 value of the tested compound on normal cells and IC 50cc: IC50 of the tested compound on cancer cell line . […]

[1] = In vitro anti-proliferative activity (MTT assay); assay type: cell-based, human; conditions: African green monkey (Vero) / human (Caco-2); IC50 on normal (Vero) cells / IC50 on Caco-2; read-out: Selectivity index Caco-2
Procedure: as §1, §2, §3, §4, §5, §6, §7, §8

Caco-2 cells [2] = experiment: Wound healing assay (migration assay); assay type: cell-based, human
Procedure: In this test, Caco-2 cells were allowed to grow then, a wound was formed on the cell layer. Next, the cells were incubated with the sub IC50 dose of compound 7. The results of wound healing were compared to the untreated cell line. Figure 4 illustrates the degree of wound healing caused by compound 7 compared to the control cells.
Was performed as the described protocol[50] and was explained intensely in Supplementary data. […]
as §3
Lung carcinoma epithelial (A549), colon cancer (Caco-2)cell lines were cultured on DMEM media, meanwhile hepatocellular cancer (HepG2), and breast cancer (MDA-MB-231) cell lines were cultured on RBMI media. […]
of 100.0 µl of 6×10^4 cell/ml cells was seeded in to each well of a 96-well plate and then the plates were incubated at 37 °C in a humidified 5.0% CO2 incubator for 24 h. […] At the end of incubation, cellular viability was assessed using MTS assay kit (Promega) according to the manual instruction. c- In-vitro anticancer activity
Anticancer activities of the tested compounds against lung carcinoma epithelial (A549), colon cancer (Caco-2), hepatocellular cancer (HepG2), and breast cancer (MDA-MB-231) cell lines were quantified using MTS assay kit (Promega) as described by the Manufacturer. d- Selectivity index (SI) […]

HepG2 = experiment: In vitro anti-proliferative activity (MTT assay); assay type: cell-based, human; conditions: for IC50: Homo sapiens, HepG2, HepG-2, mean of three replicates; for Selectivity index HepG2: IC50 on normal (Vero) cells / IC50 on HepG2
Procedure: as §2, §3
(§9) Lung carcinoma epithelial (A549), colon cancer (Caco-2)cell lines were cultured on DMEM media, […]
(§10) RBMI media. The cultured media were supplement ed with 200 mM L-glutamine, 10.0% fetal bovine serum (Lonza), and 1.0% penicillin/streptomycin. Cells were seeded into 25.0 cm tissue culture flasks and incubated at 37 ◦C in a 5.0% CO2 incubator for 24 h or till confluency.
as §5, §6
(§11) Anticancer activities of the tested compounds against lung carcinoma epithelial (A549), colon cancer […]
(§12) quantified using MTS assay kit (Promega) as described by the Manufacturer. d- Selectivity index (SI)
as §8

A549 = experiment: In vitro anti-proliferative activity (MTT assay); assay type: cell-based, human; conditions: for IC50: Homo sapiens, A549, mean of three replicates; for Selectivity index A549: IC50 on normal (Vero) cells / IC50 on A549
Procedure: as §2, §3, §9, §10, §5, §6, §11, §12, §8

MDA-MB-231 = experiment: In vitro anti-proliferative activity (MTT assay); assay type: cell-based, human; conditions: for IC50: Homo sapiens, MDA-MB-231, MDA-MB231, mean of three replicates; for Selectivity index MDA-MB231: IC50 on normal (Vero) cells / IC50 on MDA-MB231
Procedure: as §2, §3, §9, §10, §5, §6, §11, §12, §8

[3] = Cytotoxicity against normal cells (safety assay); assay type: cell-based; conditions: African green monkey, Vero cells (non-cancerous cell line)
Procedure: The cytotoxic activities of the synthesised against normal cells were evaluated against the Vero cell line utilising an MTT assay.
The safety profiles were examined on Vero cells (non-cancerous cell line) and was explained intensely in Supplementary data[48]. […]
a- Mammalian cell lines culture […]
as §10, §5
as §6, with “c- In-vitro anticancer activity” left out

Caco-2 cells [4] = experiment: Flow cytometric cell cycle analysis; assay type: cell-based, human; conditions: Caco-2, 90 µM, 24 h
Excerpt: Employing the flowcytometry technique, the cell cycle pattern of the untrated Caco-2 cancer cells (Figure 6(A)) was compared with that of the treated cells with compound 7.

TGF = experiment: RT-qPCR gene expression in Caco-2 cells; assay type: cell-based, human; conditions: Caco-2, 90 µM, 24 h
Procedure: (§13) RT-qPCR technique was applied to assess the expression levels of Bcl2, Bcl-xl, Survivin, and TGF in Caco-2 cells after treatment with compound 7 for 24 h. […] On the other hand, such a compound produced an upregulation effect of the TGF gene.
(§14) Bcl2, Bcl-xl, TGF and Survivin genes levels were evaluated as reported[51] and was explained intensely in Supplementary data. […]
(§15) f- Gene expression pattern alternation of cancer cell after treatment with compound 7.
(§16) The molecular anticancer mode of action of 7 was investigated by screening their ability to affect the gene expression levels of Bcl2, Bcl-xl, TGF and Survivin genes using specific forward and reverse primers and RTq-PCR technique (Table 1) in CaCo-2 cells (chosen as the most sensitive cancer cell line). After cellular treatment, CaCo-2 cell line was cultured into 12 well plates (6×10^3 cell/ml) for 24 h. with the sub -IC50 concentration of 7. After treatment, total RNA extraction was performed using RNA extraction kit (Qiagen, Germany). Then, 1 ug of the obtained RNA was used to synthesiz cDNA using cDNA synthesis kit (Promega Corp., Madison, WI) as recommended by the manufacturer . Simultaneously, GAPDH forward and reverse primers (Table 1) were used to amplify the house keeping gene as internal control for standardization of PCR products. The RTq -PCR was done using SYBR Green dye (QuantiTect SYBR Green PCR Kits) and Light Cycler fluorimeter (Bio-RAD S1000 Tm thermal cycler). The PCR cycling program was as follows: 95 °C for 2 min, followed by 40 cycles of 95 °C for 30s, 55 °C for 30 s, and 60 °C for 45s, and finally 60 °C for 5 min. […]

Bcl2 = experiment: RT-qPCR gene expression in Caco-2 cells; assay type: cell-based, human; conditions: Caco-2, 90 µM, 24 h
Procedure: as §13, §14, §15, §16

Bcl-xl = experiment: RT-qPCR gene expression in Caco-2 cells; assay type: cell-based, human; conditions: Caco-2, 90 µM, 24 h
Procedure: as §13, §14, §15, §16

Survivin = experiment: RT-qPCR gene expression in Caco-2 cells; assay type: cell-based, human; conditions: Caco-2, 90 µM, 24 h
Procedure: as §13, §14, §15, §16

VEGFR-2 = target: T1, VEGFR-2 (Homo sapiens, UniProt P35968); experiment: In vitro VEGFR-2 kinase assay (VEGFR-2 ELISA kit); assay type: biochemical; conditions: for HillSlope (best-fit value), VEGFR-2 inhibition / LogIC50 (best-fit value), VEGFR-2 inhibition: dose-response fit, supplement; for IC50: mean of three replicates, read-out: VEGFR-2 inhibitory activity IC50
T1 construct: purchased
T1 sequence (P35968 20-1356): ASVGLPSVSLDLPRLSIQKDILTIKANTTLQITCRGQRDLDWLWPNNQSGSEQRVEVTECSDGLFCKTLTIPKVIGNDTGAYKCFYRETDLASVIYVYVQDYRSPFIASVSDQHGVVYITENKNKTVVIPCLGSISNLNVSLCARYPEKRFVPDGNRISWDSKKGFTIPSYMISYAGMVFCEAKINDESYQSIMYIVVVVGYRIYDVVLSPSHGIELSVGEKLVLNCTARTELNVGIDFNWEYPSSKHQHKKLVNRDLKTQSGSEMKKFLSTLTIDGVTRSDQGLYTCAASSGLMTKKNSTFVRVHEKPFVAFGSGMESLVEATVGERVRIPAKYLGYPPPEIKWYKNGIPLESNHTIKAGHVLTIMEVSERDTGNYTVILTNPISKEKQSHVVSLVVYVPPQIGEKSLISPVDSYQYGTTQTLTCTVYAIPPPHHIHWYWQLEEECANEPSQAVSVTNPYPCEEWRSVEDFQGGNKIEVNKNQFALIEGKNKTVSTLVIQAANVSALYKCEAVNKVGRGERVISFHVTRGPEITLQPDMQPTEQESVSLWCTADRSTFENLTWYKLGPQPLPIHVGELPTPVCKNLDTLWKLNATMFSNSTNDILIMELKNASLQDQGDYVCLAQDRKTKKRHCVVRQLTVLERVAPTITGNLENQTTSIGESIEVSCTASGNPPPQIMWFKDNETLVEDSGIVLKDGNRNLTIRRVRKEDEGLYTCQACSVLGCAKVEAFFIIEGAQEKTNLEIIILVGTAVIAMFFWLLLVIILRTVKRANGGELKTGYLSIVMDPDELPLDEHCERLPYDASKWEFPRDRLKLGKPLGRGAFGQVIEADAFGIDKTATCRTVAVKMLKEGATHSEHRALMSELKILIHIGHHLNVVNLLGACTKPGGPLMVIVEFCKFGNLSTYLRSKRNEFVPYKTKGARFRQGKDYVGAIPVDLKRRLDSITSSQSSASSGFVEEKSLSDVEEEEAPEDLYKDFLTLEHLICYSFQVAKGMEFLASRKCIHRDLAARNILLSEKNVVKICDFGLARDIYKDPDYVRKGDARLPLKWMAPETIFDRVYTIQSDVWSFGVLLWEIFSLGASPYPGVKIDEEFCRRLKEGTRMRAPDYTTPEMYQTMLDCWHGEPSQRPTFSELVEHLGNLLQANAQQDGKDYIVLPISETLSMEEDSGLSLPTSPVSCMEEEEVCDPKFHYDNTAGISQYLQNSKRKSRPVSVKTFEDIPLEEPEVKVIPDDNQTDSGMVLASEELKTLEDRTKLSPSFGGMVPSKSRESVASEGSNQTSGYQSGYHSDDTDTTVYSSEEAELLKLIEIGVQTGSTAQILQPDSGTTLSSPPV
Procedure: As the main target in this work is the design and synthesis of promising VEGFR-2 inhibitors, we subjected the synthesised compounds to in vitro VEGFR-2 inhibitory assay to assess the ability of these compounds to obstacle the kinase activity of VEGFR-2.
Was tested using a VEGFR-2 ELISA kit and was explained intensely in Supplementary data[47].

Row | Compound | IC50 (Caco-2) [µM] | selectivity ratio [1] | IC50 (HepG2) [µM] | Selectivity index HepG2 (HepG2) | IC50 (A549) [µM] | Selectivity index A549 (A549) | IC50 (MDA-MB-231) [µM] | Selectivity index MDA-MB231 (MDA-MB-231) | IC50 at 24 h [3] [µM] | HillSlope (best-fit value), VEGFR-2 inhibition (VEGFR-2) | LogIC50 (best-fit value), VEGFR-2 inhibition (VEGFR-2) | IC50 (VEGFR-2) [µM] | also measured
1 | COc1ccc2[nH]c(=O)c(/C=C3\SC(=O)N(CC(=O)Nc4ccccc4)C3=O)cc2c1 [Compound 7, (Z)-2–(5-((6-Methoxy-2-oxo-1,2-dihydroquinolin-3-yl)methylene)-2,4-dioxothiazolidin-3-yl)-N-phenylacetamide] | 93.5 ± 0.71 | 4.71 | 150 ± 7.07 | 2.93 | 159 ± 14 | 2.77 | 122 ± 7.01 | 3.59 | 440 ± 14.1 | -0.4960 | 2.138 Log (nM) | – | diameter of the wound, treated cells (Figure 4A) (Caco-2 cells [2]; Caco-2, 90 µM, time not stated): 0.3058 mm; effect on wound healing (Caco-2 cells [2]; Caco-2, sub IC50 dose (90 µM)): prevent wound healing; cell cycle arrest (Caco-2 cells [4]): cellular arrest in sub G0 (Apoptotic phase); cell population in S phase (Caco-2 cells [4]; untreated 24.7%): 13.1%; cell population in G0/G1 phase (Caco-2 cells [4]; untreated 51.7%): 46.4%; Relative expression of TGF gene (TGF): upregulation; Relative expression of Bcl2 gene (Bcl2): down-regulating; Relative expression of Bcl-xl gene (Bcl-xl): down-regulating; Relative expression of Survivin gene (Survivin): down-regulating
2 | COc1ccc(NC(=O)CN2C(=O)S/C(=C\c3cc4cc(OC)ccc4[nH]c3=O)C2=O)cc1 [Compound 8, (Z)-2–(5-((6-Methoxy-2-oxo-1,2-dihydroquinolin-3-yl)methylene)-2,4-dioxothiazolidin-3-yl)-N-(4-methoxyphenyl)acetamide] | 190 ± 9.11 | 0.79 | 134 ± 1.41 | 1.12 | 196 ± 70 | 0.77 | 130 ± 5.6 | 1.15 | 150 ± 14.1 | -0.3463 | 2.272 Log (nM) | 0.187 | –
3 | COc1ccc2[nH]c(=O)c(/C=C3\SC(=O)N(CC(=O)Nc4ccccc4C)C3=O)cc2c1 [Compound 9, (Z)-2–(5-((6-Methoxy-2-oxo-1,2-dihydroquinolin-3-yl)methylene)-2,4-dioxothiazolidin-3-yl)-N-(o-tolyl)acetamide] | 167 ± 4.2 | 1.17 | 145 ± 3.5 | 1.35 | 51 ± 4.2 | 3.84 | 188 ± 7.01 | 1.04 | 196 ± 2.8 | -0.5262 | 1.994 Log (nM) | 0.0985 | times as active as sorafenib (VEGFR-2; VEGFR-2 inhibition): 0.54 times
4 | COc1ccc(NC(=O)CN2C(=O)S/C(=C3\C(=O)Nc4ccccc43)C2=O)cc1 [Compound 14] | 5.7 ± 0.07 | – | 149 ± 7.01 | – | 54 ± 1.4 | – | 9 ± 0.51 | – | 30 ± 1.35 | – | – | 0.0859 | times as active as doxorubicin (Caco-2; Caco-2 cells): 1.44 times
5 | COc1cccc2c1C(=O)c1c(O)c3c(c(O)c1C2=O)C[C@@](O)(C(=O)CO)C[C@@H]3O[C@H]1C[C@H](N)[C@H](O)[C@H](C)O1 [Doxorubicin, reference compound] | 8.2 ± 0.21 | 3.05 | 2.8 ± 0.07 | 8.93 | 7 ± 0.22 | 3.57 | 9 ± 0.77 | 2.78 | 25 ± 1.41 | – | – | – | –
